This is an account of results in paper PMC2909581 (Clinical cancer research : an official journal of the …, 2010).

A short description of data set [1]: Sorafenib and N-oxide metabolite plasma pharmacokinetics. Type of data set: in vivo, human.
Data set [2] is described as follows: clinical. In kind it is in vivo, human.
In data set [3] the test system is Hsp90. The data set is described as follows: Western blot of PBMC lysates: Hsp90 levels. In kind it is in vivo, human. Particulars: sorafenib therapy. (In general: Immunoblotting shows a protein as a band on a membrane.)
The conditions of data set [4]: in vivo.
Data set [5] deals with renal cancer. Particulars: no prior VEGF inhibitor therapy; cited from earlier work.
The mark [6] stands for this setting: Maximum, Day 1, in combination with tanespimycin.
The mark [7] stands for this setting: Maximum, Day −1, sorafenib given alone.
[8] abbreviates: Mean, Day 1, in combination with tanespimycin, steady-state, eleven patients.
[9] abbreviates: Mean, Day −1, sorafenib given alone, steady-state, eleven patients.
[10] abbreviates: Minimum, Day 1, in combination with tanespimycin.
Where [11] appears, read: Minimum, Day −1, sorafenib given alone.

The structures appear in SMILES notation.

Usually Cmax stands for the maximum level reached in the sampled fluid or tissue. For orientation: Tmax means the time from dosing to the highest level. The term AUC denotes concentration integrated over time.

With `CNC(=O)c1cc(Oc2ccc(NC(=O)Nc3ccc(Cl)c(C(F)(F)F)c3)cc2)cc[n+]1[O-]` [N-oxide sorafenib], the AUClast amounted to 40.5 µM·h in data set [1] (setting [6]); 45.7 µM·h in data set [1] (setting [7]); 16.1 µM·h in data set [1] (setting [8]); 15.5 µM·h in data set [1] (setting [9]); 5.5 µM·h in data set [1] (setting [10]); 3.2 µM·h in data set [1] (setting [11]). The Cmax in data set [1] (setting [6]) amounted to 7.3 µM; in data set [1] (setting [7]), 6.4 µM; in data set [1] (setting [8]), 2.6 µM; in data set [1] (setting [9]) it was 2 µM; in data set [1] (setting [10]) it was 0.7 µM; in data set [1] (setting [11]), 0.5 µM. Further, the Tmax in data set [1] (setting [6]) is given as 10.0 h; in data set [1] (setting [7]), 10.0 h; in data set [1] (setting [8]), 8.5 h; in data set [1] (setting [11]) it was 1.0 h.
`CO[C@H]1/C=C/C=C(\C)C(=O)NC2=CC(=O)C(N)=C(C[C@@H](C)C[C@H](OC)[C@H](O)[C@@H](C)/C=C(\C)[C@@H]1OC(N)=O)C2=O` [17-AG]: in data set [2] (concurrent sorafenib), the “Cmax on days 1 and 15 compared” value is “similar”. The “Cmax (end of infusion) and AUC versus tanespimycin dose” value in data set [2] (in vivo, iv) is reported as “increased with increasing tanespimycin dose”.
Turning to `CNC(=O)c1cc(Oc2ccc(NC(=O)Nc3ccc(Cl)c(C(F)(F)F)c3)cc2)ccn1` [sorafenib], the AUClast in data set [1] (setting [6]) amounted to 146.8 µM·h; in data set [1] (setting [7]) it was 181.2 µM·h; in data set [1] (setting [10]) it was 46.7 µM·h; in data set [1] (setting [11]) it was 44.3 µM·h. Besides, the Cmax in data set [1] (setting [6]) was determined as 26.6 µM; in data set [1] (setting [7]) it was 22.5 µM; in data set [1] (setting [10]) it was 6.6 µM; in data set [1] (setting [11]), 5.8 µM. Moreover, the Tmax is 10.0 h in data set [1] (setting [6]); 10.0 h in data set [1] (setting [7]); 1.0 h in data set [1] (setting [10]); 1.0 h in data set [1] (setting [11]); 1 to 10 h in data set [1] (human, plasma, po, 400 mg). The AUC in data set [1] (human, plasma, po) was 90.7 µM·h. In addition, the “mean steady-state trough levels” value in data set [1] (plasma, sorafenib 400 mg twice daily) is recorded as 8.0 µM. Further, in data set [1] (sorafenib 400 mg twice daily), the “time of chronic treatment until plasma concentration reached the steady-state” value is given as 7 days. Further, in data set [1] (sorafenib 400 mg twice daily with 17-AAG), the “effect of coadministration of 17-AAG on systemic exposure” value is on record as “did not significantly alter”. Besides, the “effect on Hsp90 levels” value in data set [3] is listed as “not affected”. Moreover, in data set [4] (human), the “patients requiring dose modifications” value came to 3 patients. In addition, the “patients with treatment interruptions” value in data set [4] (human) was determined as 5 patients. In data set [4], the predominant toxicities attributed entry was “hand-foot syndrome and diarrhea”. In data set [5], the response rate is listed as 10%.
